Results from US20220370451A1, “INHIBITORS OF HUMAN IMMUNODEFICIENCY VIRUS REPLICATION” (VIIV HEALTHCARE UK ( No. 5) LIMITED, priority 2019, published 2022).
Read-outs that look alike come from different tables or passages of the source.

Key:
Assay type in all cases: cell-based
[1] = Compound cytotoxicity, XTT-based colorimetric assay; settings: human; uninfected MT2 cells, day 4, XTT
Description: (§1) Compound cytotoxicity and the corresponding CC50 values were determined using the same protocol as described in the antiviral assay except that uninfected cells were used. Cytotoxicity was assessed on day 4 in uninfected MT2 cells by using a XTT (2,3-bis[2-Methoxy-4-nitro-5-sulfophenyl]-2H-tetrazolium-5-carboxyanilide inner salt)-based colorimetric assay (Sigma-Aldrich, St Louis, Mo.).

[2] = tested on: recombinant NL4-3 virus; assay: HIV cell culture assay (luciferase reporter antiviral activity)
Description: HIV cell culture assay—MT=2 cells, 293T cells and the proviral DNA clone of NL4-3 virus were obtained from the NIH AIDS Research and Reference Reagent Program. MT=2 cells were propagated in RPMI 1640 media supplemented with 10% heat inactivated fetal bovine serum (FBS), […] penicillin G and up to 100 units/mL streptomycin. The 293T cells were propagated in DMEM media supplemented with 10% heat inactivated FBS, […] penicillin G and […] streptomycin. A recombinant NL4-3 proviral clone, in which a section of the nef gene was replaced with the Renilla luciferase gene, was used to make the reference virus used in these studies. The recombinant virus was prepared through transfection of the recombinant NL4-3 proviral clone into 293T cells using Transit-293 Transfection Reagent from Mirus Bio LLC (Madison, Wis.). Supernatent was harvested after 2-3 days and the amount of virus present was titered in MT=2 cells using luciferase enzyme activity as a marker by measuring luciferase enzyme activity. Luciferase was quantitated using the EnduRen Live Cell Substrate from Promega (Madison, Wis.). Antiviral activities of compounds toward the recombinant virus were quantified by measuring luciferase activity in MT=2 cells infected for 4-5 days with the recombinant virus in the presence of serial dilutions of the compound.
The 50% effective concentration (EC50) was calculated by using the exponential form of the median effect equation where (Fa)=1/[1+(ED50/drug conc.)m] (Johnson V A, Byington RT. Infectivity Assay. In Techniques in HIV Research. ed. Aldovini A, Walker B D. 71-76. New York: Stockton Press.1990). The 50% inhibitory concentration (EC50) was calculated by using the exponential form of the median effect equation where percent inhibition=1/[1+(EC50/drug concentration)m], where m is a parameter that reflects the slope of the concentration-response curve.

[3] = tested on: uninfected MT2 cells; assay: Compound cytotoxicity, XTT-based colorimetric assay
Description: as §1

[4] = Human immunodeficiency virus 1, NL43, MT2

SMILES	CC50 at 4 days [1] [nM]	EC50 [2, 4] [nM]	CC50 [3] [nM]	EC50 ([2]; MT-2 cells infected for 4-5 days with recombinant NL4-3 Renilla luciferase virus, read-out: EC50) [nM]
Cc1cc(F)ccc1-c1ccc2c(=O)n(-c3ccc(C)c4c(NS(C)(=O)=O)nn(C)c34)c([C@H](Cc3cc(F)cc(F)c3)NC(=O)Cn3nc(C(F)F)c4c3C(F)(F)[C@@H]3C[C@H]43)nc2c1 (atropisomer, axis not shown; (aR)) [Example 31, 2-((3bS,4aR)-3-(difluoromethyl)-5,5-difluoro-3b,4,4a,5-tetrahydro-1H-cyclopropa[3,4]cyclopenta[1,2-c]pyrazol-1-yl)-N-((S)-2-(3,5-difluorophenyl)-1-(3-(1,4-dimethyl-3-(methylsulfonamido)-1H-indazol-7-yl)-(3P)-7-(4-fluoro-2-methylphenyl)-4-oxo-3,4-dihydroquinazolin-2-yl)ethyl)acetamide]	> 500	2.3	–	–
Cc1nccnc1-c1ccc2c(=O)n(-c3ccc(C)c4c(NS(C)(=O)=O)nn(C)c34)c(C(Cc3cc(F)cc(F)c3)NC(=O)Cn3nc(C(F)F)c4c3C(F)(F)[C@@H]3C[C@H]43)nc2c1 (stereo partly drawn) [Example 6, 2-((3bS,4aR)-3-(difluoromethyl)-5,5-difluoro-3b,4,4a,5-tetrahydro-1H-cyclopropa[3,4]cyclopenta[1,2-c]pyrazol-1-yl)-N-((S)-2-(3,5-difluorophenyl)-1-(3-(1,4-dimethyl-3-(methylsulfonamido)-1H-indazol-7-yl)-(3P)-7-(3-methylpyrazin-2-yl)-4-oxo-3,4-dihydroquinazolin-2-yl)ethyl)acetamide]	> 500	0.056	–	–
Cc1nccnc1-c1ccc2c(=O)n(-c3ccc(Cl)c4c(NS(C)(=O)=O)nn(C)c34)c([C@H](Cc3cc(F)cc(F)c3)NC(=O)Cc3cn(C(C)C)c4ccccc34)nc2c1 [Example 8, (S)-N-(1-((3P)-3-(4-chloro-1-methyl-3-(methylsulfonamido)-1H-indazol-7-yl)-7-(3-methylpyrazin-2-yl)-4-oxo-3,4-dihydroquinazolin-2-yl)-2-(3,5-difluorophenyl)ethyl)-2-(1-isopropyl-1H-indol-3-yl)acetamide]	–	–	> 500	0.45
Cn1nc(NS(C)(=O)=O)c2c(Cl)ccc(-n3c([C@H](Cc4cc(F)cc(F)c4)NC(=O)Cn4ccc5ccccc54)nc4cc(-c5ccccc5F)ccc4c3=O)c21 [Example 30, (S)-N-(1-((3P)-3-(4-chloro-1-methyl-3-(methylsulfonamido)-1H-indazol-7-yl)-7-(2-fluorophenyl)-4-oxo-3,4-dihydroquinazolin-2-yl)-2-(3,5-difluorophenyl)ethyl)-2-(1H-indol-1-yl)acetamide]	> 500	3	–	–
